# Source: US20140227408A1, “MEAT TREATMENT AND PRESERVATION METHOD” (RED MEAT AS, priority 2011, published 2014)
# Assays:
# Set-up in all cases: species or system cattle
# [1] = Colour L*, a*, b* of treated ground beef, low oxygen packaging (Example 5); details: low oxygen packaging
# Text: Beef M. semimembranosus (M.S.) and beef fat tissue were collected four days post mortem (Fatland A/S, Oslo, Norway). The packaging day is defined as day zero, however, the tissues were 4 days post mortem on packing day. A piece of meat from proximal end was cut from each muscle in order to measure oxygen consumption, pH and surface colour. Fat tissue from pigs fed rapeseed and vitamin E to enhance the content of polyunsaturated fatty acids were from HKScan (Ruokatalo, Finland). The fat tissue was transported vacuum-packaged and frozen. Samples of minced fat tissue were removed for fatty acid analysis.
# The beef muscles were cut into pieces of approximately 10×5 cm and mixed to 14% w/w fat by using the fat tissues. Beef fat and pork fat tissues were ground twice with either raw beef from four young (16-19 months) or four old (46-81 months) cattle. […] The ground meat was blended manually with solutions (all at pH 5.8) with various TCA and glycolytic ingredients (see below).
# To maintain pH at 5.8 the solutions were prepared by mixing the acid form and the corresponding sodium salt of these chemicals.
# […] The solution was quickly and properly stirred into the minced meat and the blended system was subsequently packaged. […] Two reference samples with 40 ml of distilled water added to 360 gram of ground beef were also prepared each of the four production day, i.e. altogether 8 references were prepared. The samples were packaged in either low or high oxygen atmosphere.
# The ground beef was packaged in black amorphous polyethylene terephthalate (APET) trays that were sealed with ethylene vinyl alcohol (EVOH) top films. The trays and films (Wipak Multipet and Wipak Biaxer, both Wipak, Nastola, Finland) had oxygen transmission rates of 7 and 5 cm^3/m^2/24 h at 23° C. at 50% relative humidity. Packaging was carried out within 1 hour after grinding. The samples were stored in darkness at 4° C. for 8 days in a high-oxygen atmosphere (75% oxygen and 25% CO2) and for 13 days in a low-oxygen atmosphere (60% CO2 and 40% N2). These food grade gas mixtures were supplied by AGA (Oslo, Norway).
# The colour of the ground meat samples was measured with a Konica Minolta Chroma Meter CR 410 (Konica Minolta Sensing Inc., Osaka, Japan) using the glass light projection tube CR A 33e with wide illumination area (61 mm) and illuminant D65. The instrument was calibrated each day by measuring a white ceramic plate (L*=97.9; a*=0.05; b*=2). All colour measurements were made with 3 replicates (CIE, 1976, “Recommendations on uniform colour spaces-colour difference equations” (Vol. Supplement No. 2 to CIE). Paris, France: Commission Internationale de l'Eclairage).
# The colour of the samples packaged in high O2 was measured after 0, 1, 3, 6 and 8, days of storage from packaging day, while low O2 samples were measured at 0 to 13 days of storage using Minolta and reflectance measurements.
# The experimental design is visualized in FIG. 5. A 2^2 design (animal age and type of fat tissue) was split over 4 experimental days (FIG. 5, and Tables 10 and 11). To each corner of this 2^2 design was added a 3 component (succinate, pyruvate and glutamate-malate additions; 0, 50 and 100%) simplex lattice mixture design with 2 additional centre experiments as shown in FIG. 5.
# [2] = Colour (b*, a*) of minced beef mixed with test brines, stored in low-oxygen MAP (Examples 1-2); details: for b*: low oxygen (MAP), day 6 of storage, amount 1 = 0.1 mol per kg meat
# Protocol: (§1) Beef fat and pork fat (high degree of unsaturation) were used with raw semimembranosus muscle from young and old cattle. Beef from the hind leg was removed, weighed, chopped, mixed with fat (14% by weight), and the various test compounds were added to the minced meat. The mixtures were packed into boxes and sealed with plastic sheeting. Packing was done with MAP to yield a low-oxygen atmosphere (60% CO2 and 40% N2) and also under a high-oxygen atmosphere (75% oxygen and 25% CO2). The samples were stored in darkness at 4° C. from 0 to 8 days for the high-oxygen atmosphere and 0 to 13 days for the MAP samples. A Cheers Packaging Machine (Promens) was used for packaging of samples. Triplicate reference samples with only 40 ml of distilled water mixed and packaged as described above were evaluated at days 6 and 8 for the high-oxygen environment and at days 6, 8, 10 and 13 for the MAP environment.
# (§2) Samples of test compounds were prepared with succinate, glutamate, malate, pyruvate and citrate in different combinations, either as single chemicals or as mixtures. The acid and conjugate base of each active component was added in the appropriate ratio to provide the solutions (brines) with a pH of 5.8. As will be clear from the foregoing description, the “succinate” used in this experiment was a combination of succinic acid and sodium succinate. The “glutamate”, “malate”, etc. were used equivalently.
# (§3) Meat and fat was cut into small pieces and minced (3 mm holes). 40 g of brine was added to 360 g mince and packed in the plastic packing.
# (§4) Several variables were included in the design of the experiment, using a 2^3 factorial design. […] Malate and glutamate were considered together in the design and analysis, but their ratio was varied in the experiments from pure malate to pure glutamate.
# (§5) Colour changes in the samples were measured with a FOSS NIRSystems™ 6500 analyser and a Konica Minolta Chroma meter CR 410 (Konica Minolta Sensing Inc., Osaka, Japan). Colour was measured using the parameters L*, a* and b* at 0, 1, 3, 6 and 8 days for samples stored in 75% oxygen. Colour changes of the samples packaged in MAP were measured at 0, 1, 3, 6, 8, 10 and 13 days of storage time.
# Results from the experiments carried out on the various meat and fat samples are shown below in Tables 1 to 8. Values given for the amount of active agents in Tables 1 to 8 correspond to the molar proportion of the given agent within the brine/meat mixture, where a value of 1 corresponds to 0.1 moles active agent per kg of meat, a value of 0.5 corresponds to 0.05 mol/kg, etc. […] The b* values, which are considered to be most representative of the colour changes in the meat being tested, are shown. All results correspond to measurements made on day 6 of storage
# The data from the experiment described in Example 1 were analyzed using an ANOVA model with all main effect and second and higher order effects according to the method described in Langsrud, Ø. (“50-50 Multivariate Analysis of Variance for Collinear Responses” The Statistician (2002) 51, pp. 305-317). […] The mixture design was fractional.
# [3] = Colour (b*) of minced beef mixed with test brines, stored in high-oxygen atmosphere (Example 1); details: day 6 of storage, amount 1 = 0.1 mol per kg meat
# Protocol: as §1, §2, §3, §4, §5
# Results from the experiments carried out on the various meat and fat samples are shown below in Tables 1 to 8. Values given for the amount of active agents in Tables 1 to 8 correspond to the molar proportion of the given agent within the brine/meat mixture, where a value of 1 corresponds to 0.1 moles active agent per kg of meat, a value of 0.5 corresponds to 0.05 mol/kg, etc. […]
# The data from the experiment described in Example 1 were analyzed using an ANOVA model with all main effect and second and higher order effects according to the method described in Langsrud, Ø. […]
# [4] = old beef muscle mixed with beef fat
# [5] = old beef muscle mixed with pork fat
# [6] = young beef muscle mixed with pork fat
compound,measurement,setting,value
N[C@@H](CCC(=O)O)C(=O)O [glutamate],"effect on redness (a*), in words",[1],nominally higher a* values
"O=C(O)CCC(=O)O [succinate 1.00, succinate]",a*,"[2]; low-oxygen environment, zero citrate, after 6 days storage, relative amounts of succinate, pyruvate, glutamate + malate",9.81
same,b*,[2]; [4],1.48
same,b*,[2]; [5],0.98
same,b*,"[2]; young beef muscle mixed with beef fat, 4° C.",1.07
same,b*,[2]; [6],1.34
same,b*,[3]; [4],3.45
same,b*,[3]; [5],3.77
same,b*,[3]; young beef muscle mixed with beef fat,4.01
same,b*,[3]; [6],4.70
O=C(O)CC(O)C(=O)O (racemic) [malate],"effect on yellowness (b*), in words",[1],nominally higher b* values
